Literature values in publication PMC10046020, “In Silico Screening and Optimization of Cell-Penetrating Peptides Using Deep Learning Methods” (Biomolecules, 2023).

Conditions: Spreadsheet S1: 150 CPP and 150 non-CPP peptides collected from CellPPD, MLCPP, CPPsite 2.0, Lifetein and other publications; cited from earlier work
Excerpt: Supplement biomolecules-13-00522-s001.zip/biomolecules-2162660_Supplementary Spreadsheets S1 Test Set.csv, table | column: class || Supplement biomolecules-13-00522-s001.zip/biomolecules-2162660_Supplementary Spreadsheets S2 Train Set.csv, table | column: class

| Substance | class (CPP / Non-CPP), Test Set |
| --- | --- |
| LMLRTVGYKFHCSLPVNAVHCSLK | Non-CPP |
| CAETCIYIPCFTEAVGCKCKDKVCYKN | Non-CPP |
| TTPFTIRGPLGNQGRGNPVR | Non-CPP |
| KLAAKLALKALKAA | Non-CPP |
| PVVHLTLRQEGDDFSR | Non-CPP |
| KLALKLACKALKAA | Non-CPP |
| RKGWFKAMKSIAKFIAKEKLKEHL | CPP |
| MAPTKRKGSCPGAAPNKKP | CPP |
| KKLALHALHLLALLWLHLAHLALKK | CPP |
| TFFYGGSRGKRNNFKTEEY | CPP |
| RFTFHFRFEFTFHFE | CPP |
| KKLSECLKRIGVELDS | Non-CPP |
| IHSHWFVMVLKGKAARQRDDLWTHPCFPS | Non-CPP |
| YSSQHLCGSNLVEALYMTCGRSGFYRPHD | Non-CPP |
| PVVHLTLRQAGDDFGR | Non-CPP |
| AHALCLTERQIKSNRRMKWKKEN | Non-CPP |

| Substance | class (CPP / Non-CPP), Test Set |
| --- | --- |
| KKKQYTWIHHGVVEVD | Non-CPP |
| ADCKNFFWKTFTSC | Non-CPP |
| INWLKLGKAIIDAL | Non-CPP |
| GWTNLSAGYLLGPPPGFSPFS | Non-CPP |
| LNSLGYLLGKALAALAKKIL | Non-CPP |
| RRLRHLRHHYRRRWHRFR | CPP |
| AKRGARSTA | CPP |
| DAATARGRGRSAASRPTERPRAPARSASRPRRPVD | CPP |
| MDMVAIDDQDYIMCHF | Non-CPP |
| KLDFLGEGQFATVYKARDKNT | Non-CPP |
| ACRGRGRRCGSGRRSCG | CPP |
| GWTNLSAGCLLGPPPGFSPFR | Non-CPP |
| TAAGDARANAVAKAGLHDLNIETDTERNH | Non-CPP |
| AHALCLTEFQIKSNRRMKWKKEN | Non-CPP |
| YGRKKRRQRRRYGRKKRRQRRR | CPP |
| TRQARRNRRRWRERQR | CPP |

Same assay, conditions: Spreadsheet S2: peptides collected from CellPPD, MLCPP, CPPsite 2.0, Lifetein and other publications; cited from earlier work

| Substance | class (CPP / Non-CPP), Train Set |
| --- | --- |
| RRRRRRRGGKLAKLAKKLAKLAK | CPP |
| RRRRRRRGGIYLATALAKWALKQ | CPP |

Same assay, conditions: cited from earlier work

| Substance | class (CPP / Non-CPP), Test Set |
| --- | --- |
| ENGPDQWSKLYP | Non-CPP |
| NYQWRCKNQN | CPP |
| YRDRFAFQPH | CPP |
| RFVHNC | Non-CPP |
| RRRRRRRRGC | CPP |
| KIWFMNRRMK | Non-CPP |
| WRWRWRWRW | CPP |
| VIVTERVLLLVAP | Non-CPP |
| GSSGMIPFPRV | Non-CPP |
| RRRRRRRHHH | CPP |
| RRRRRRRRRR | CPP |
| RRRRRHHH | CPP |
| RRRRWWWW | CPP |
| SYNTF | Non-CPP |
| IKRYLIKR | Non-CPP |
| CDAGRKQKC | CPP |
| NYRWRCK | CPP |
| RKKNPNCRR | CPP |
| NTGTWLKYHS | CPP |
| VDFEEAYLAVS | Non-CPP |

| Substance | class (CPP / Non-CPP), Test Set |
| --- | --- |
| VIVYIVVKDASSK | Non-CPP |
| VATIKSVSFYTRK | Non-CPP |
| CYFQNCPVG | Non-CPP |
| IPLVVPLC | CPP |
| YTFGLKTSFNVQ | CPP |
| HGWEIHGLLHRA | CPP |
| QEHDYGNLDLCN | Non-CPP |
| NTCTWLKY | CPP |
| LIKRKRLI | Non-CPP |
| SNGHACRPW | Non-CPP |
| HGVSGHGQHGVHG | Non-CPP |
| MVMEMRNF | Non-CPP |
| NYQRRCKNQN | CPP |
| PLDGMCDKGNYTQ | Non-CPP |
| RRRRRRRRC | CPP |
| NYRWRCKN | CPP |
| FLPFLAKILTGVL | Non-CPP |
| RHVYHVLLSQ | CPP |
| FHFHFRFR | CPP |
| MIEMAM | Non-CPP |
